Assay results reported in ChEMBL document CHEMBL1201862, “PubChem BioAssay data set” (2004).
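A five-concentration, 48-hour dose response in 96-well plates underlies each endpoint, interpolated linearly between surrounding concentrations. GI50 marks 50% less growth.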 Calls of active or inactive are those of the source. No stated cut-off is given here; in the data, active = GI50 up to about 1.1 µM and inactive = higher.

Columns and labels:
Assay in all cases: DTP human tumour cell line panel, 48 h
[1] = tested on: 786-0
[2] = tested on: U-251
[3] = tested on: MOLT-4
[4] = tested on: EKVX
[5] = tested on: HL-60
[6] = tested on: A549
[7] = tested on: NCI/ADR-RES
[8] = tested on: CCRF-CEM
[9] = tested on: ACHN
[10] = tested on: OVCAR-8
[11] = tested on: DU-145
[12] = tested on: MDA-N
[13] = tested on: NCI-H226
[14] = tested on: SK-MEL-5
[15] = tested on: HT-29
[16] = tested on: KM12
[17] = tested on: Malme-3M
[18] = tested on: RPMI-8226
[19] = tested on: SF-268
[20] = tested on: HCC 2998

Row | SMILES | GI50 [1] | GI50 [2] | GI50 [3] | GI50 [4] | GI50 [5] | GI50 [6] | GI50 [7] | GI50 [8] | GI50 [9] | GI50 [10] | GI50 [11] | GI50 [12] | GI50 [13] | GI50 [14] | GI50 [15] | GI50 [16] | GI50 [17] | GI50 [18] | GI50 [19] | GI50 [20]
1 | CCc1oc2ccccc2c1C(=O)c1cc(Br)c(O)c(Br)c1 [BENZBROMARONE] | 29.9 µM (inactive) | 17.3 µM (inactive) | 26.9 µM (inactive) | 30.7 µM (inactive) | 13.6 µM (inactive) | 34.8 µM (inactive) | 31.6 µM (inactive) | 26.4 µM (inactive) | 17.5 µM (inactive) | 32.7 µM (inactive) | 43.3 µM (inactive) | 30.2 µM (inactive) | 22.1 µM (inactive) | 17.4 µM (inactive) | 30.3 µM (inactive) | 20.7 µM (inactive) | 19.1 µM (inactive) | 29 µM (inactive) | 28.1 µM (inactive) | 
2 | CC1(C)CC(=O)c2c(nc3c(ccc4ccccc43)c2-c2ccc(NC(=O)CCCCC(=O)Nc3ccc(-c4c5c(nc6c4ccc4ccccc46)CC(C)(C)CC5=O)cc3)cc2)C1 | 42.2 µM (inactive) | 28.4 µM (inactive) | 13.7 µM (inactive) | 21.2 µM (inactive) | 29.6 µM (inactive) | 53.7 µM (inactive) | 23.8 µM (inactive) | 20.7 µM (inactive) | 24 µM (inactive) | 26.1 µM (inactive) | 36.1 µM (inactive) | 26.4 µM (inactive) | 15.2 µM (inactive) | 32.1 µM (inactive) | 22.5 µM (inactive) | 20.7 µM (inactive) |  | 18.8 µM (inactive) | 28.2 µM (inactive) | 
3 | COC(CNC(=O)CNC(=O)c1ccc(C(F)(F)F)cc1)OC | > 100 µM (inactive) | > 100 µM (inactive) | > 100 µM (inactive) | > 100 µM (inactive) | > 100 µM (inactive) | > 100 µM (inactive) | > 100 µM (inactive) | > 100 µM (inactive) | > 100 µM (inactive) | > 100 µM (inactive) | > 100 µM (inactive) | > 100 µM (inactive) | > 100 µM (inactive) | > 100 µM (inactive) | > 100 µM (inactive) | > 100 µM (inactive) | > 100 µM (inactive) | > 100 µM (inactive) | > 100 µM (inactive) | 
4 | Nc1nc(Nc2ccc(Cl)cc2)sc1C(=O)c1cccs1 | 11.8 µM (inactive) | 14.7 µM (inactive) | > 100 µM (inactive) | 20 µM (inactive) | > 100 µM (inactive) | 27.9 µM (inactive) | 50.6 µM (inactive) | 53.7 µM (inactive) | 36.3 µM (inactive) |  | 78.9 µM (inactive) | > 100 µM (inactive) | 24.7 µM (inactive) | 38.2 µM (inactive) | 6.18 µM (inactive) | > 100 µM (inactive) | 99.3 µM (inactive) | > 100 µM (inactive) | 28.7 µM (inactive) | 
5 | CCCC/N=C(/c1ccccc1)N1CCOCC1 | > 100 µM (inactive) | > 100 µM (inactive) | > 100 µM (inactive) | > 100 µM (inactive) | > 100 µM (inactive) |  | > 100 µM (inactive) | > 100 µM (inactive) | > 100 µM (inactive) | > 100 µM (inactive) | > 100 µM (inactive) | > 100 µM (inactive) | > 100 µM (inactive) | > 100 µM (inactive) | > 100 µM (inactive) | > 100 µM (inactive) | 57.9 µM (inactive) | > 100 µM (inactive) | > 100 µM (inactive) | 
6 | CCOC(=O)CSc1c(C(=O)OCC)c(=O)n(-c2ccccc2)c(=S)n1-c1ccccc1 | 85.5 µM (inactive) | 13.3 µM (inactive) | 5.61 µM (inactive) | 62.8 µM (inactive) | 17.1 µM (inactive) | 32.1 µM (inactive) | 2.99 µM (inactive) | 4.92 µM (inactive) | 36 µM (inactive) | 41 µM (inactive) | 82 µM (inactive) | > 100 µM (inactive) | 36.5 µM (inactive) | 23.5 µM (inactive) | 54.3 µM (inactive) | 59.2 µM (inactive) | > 100 µM (inactive) | 37.5 µM (inactive) | > 100 µM (inactive) | 
7 | O=c1[nH]c(=O)n(C2CC(O)C(CO)O2)cc1OCc1ccccc1 (centres undefined) | > 100 µM (inactive) | > 100 µM (inactive) | > 100 µM (inactive) | > 100 µM (inactive) | > 100 µM (inactive) | > 100 µM (inactive) | > 100 µM (inactive) | > 100 µM (inactive) | > 100 µM (inactive) | > 100 µM (inactive) | > 100 µM (inactive) | > 100 µM (inactive) | > 100 µM (inactive) | > 100 µM (inactive) | > 100 µM (inactive) | > 100 µM (inactive) | > 100 µM (inactive) | > 100 µM (inactive) | > 100 µM (inactive) | 
8 | COC(=O)Cn1cnc2c(Cl)nc(Nc3ccccc3)nc21 | > 100 µM (inactive) | 66.7 µM (inactive) | 26.5 µM (inactive) | 27 µM (inactive) | 22.4 µM (inactive) | 79.6 µM (inactive) | 73.3 µM (inactive) | 27.2 µM (inactive) | > 100 µM (inactive) | 25.9 µM (inactive) |  | 30.8 µM (inactive) | > 100 µM (inactive) | 39 µM (inactive) | > 100 µM (inactive) | > 100 µM (inactive) | 54.3 µM (inactive) | > 100 µM (inactive) | > 10 µM (inactive) | 6.52 µM (inactive)
9 | COCO[C@@H]1C[C@H]2C(=O)N(COC)c3ccccc3C(=O)N2C1 | > 100 µM (inactive) | > 100 µM (inactive) | > 100 µM (inactive) | > 100 µM (inactive) | > 100 µM (inactive) | > 100 µM (inactive) | > 100 µM (inactive) | > 100 µM (inactive) | > 100 µM (inactive) | > 100 µM (inactive) | > 100 µM (inactive) | > 100 µM (inactive) | > 100 µM (inactive) | > 100 µM (inactive) | > 100 µM (inactive) | > 100 µM (inactive) | > 100 µM (inactive) |  | > 100 µM (inactive) | 
10 | CCOC(=O)CSc1nc(-c2ccccc2)c(C#N)c(=O)[nH]1 | > 100 µM (inactive) | > 100 µM (inactive) | > 100 µM (inactive) | > 100 µM (inactive) | > 100 µM (inactive) | > 100 µM (inactive) | > 100 µM (inactive) | > 100 µM (inactive) | > 100 µM (inactive) | > 100 µM (inactive) | > 100 µM (inactive) |  | > 100 µM (inactive) | > 100 µM (inactive) | > 100 µM (inactive) | > 100 µM (inactive) |  | > 100 µM (inactive) | > 100 µM (inactive) | > 100 µM (inactive)
11 | COc1cc2cc(C(=O)N3CC(CCl)c4c3cc(O)c3ccccc43)[nH]c2c(OC)c1OC (centres undefined) | < 0.005 µM (active) | < 0.005 µM (active) | < 0.005 µM (active) | < 0.005 µM (active) | < 0.005 µM (active) | < 0.005 µM (active) | < 0.005 µM (active) | < 0.005 µM (active) | < 0.005 µM (active) | < 0.005 µM (active) | < 0.005 µM (active) |  | < 0.005 µM (active) | < 0.005 µM (active) | < 0.005 µM (active) | < 0.005 µM (active) | < 0.005 µM (active) | < 0.005 µM (active) | < 0.005 µM (active) | < 0.005 µM (active)
12 | O=C(/C=C/c1ccc2c(c1)OCO2)c1ccccc(=O)c1O | 8.32 µM (inactive) | 15.9 µM (inactive) | 6.27 µM (inactive) | 20.7 µM (inactive) |  |  | 2.08 µM (inactive) | 0.0376 µM (active) | 8.24 µM (inactive) | 4.3 µM (inactive) | 17.3 µM (inactive) | 16.4 µM (inactive) | 35.6 µM (inactive) | 7.66 µM (inactive) | 9.51 µM (inactive) | 8.43 µM (inactive) | 23.3 µM (inactive) | 7.14 µM (inactive) | 3.42 µM (inactive) | 
13 | CC1(C)OP(=O)(O)CC1=O | > 100 µM (inactive) | > 100 µM (inactive) |  | > 100 µM (inactive) |  | > 100 µM (inactive) | > 100 µM (inactive) |  | > 100 µM (inactive) | > 100 µM (inactive) | > 100 µM (inactive) | > 100 µM (inactive) | > 100 µM (inactive) | > 100 µM (inactive) | > 100 µM (inactive) | > 100 µM (inactive) | > 100 µM (inactive) |  | > 100 µM (inactive) | > 100 µM (inactive)
14 | Cc1ccc(S(=O)(=O)N2CCN(S(=O)(=O)c3ccc(C)cc3)Cc3ccccc3C2)cc1 | 35.2 µM (inactive) |  | > 100 µM (inactive) | > 100 µM (inactive) | > 100 µM (inactive) | 80.5 µM (inactive) | > 100 µM (inactive) | > 100 µM (inactive) | 36.9 µM (inactive) | 82.6 µM (inactive) | > 100 µM (inactive) |  | 60.3 µM (inactive) | 29.3 µM (inactive) | > 100 µM (inactive) | > 100 µM (inactive) | > 100 µM (inactive) | > 100 µM (inactive) | 81.1 µM (inactive) | > 100 µM (inactive)
15 | Cc1ccc([N+](=O)[O-])cc1S(=O)(=O)Nc1ccc(C2=NN(C(=O)c3ccccc3)C(c3ccccc3O)C2)cc1 (centres undefined) | 14.4 µM (inactive) | 16.5 µM (inactive) | 13.6 µM (inactive) | 12.6 µM (inactive) | 18.6 µM (inactive) | 19.1 µM (inactive) | 27 µM (inactive) | 17.5 µM (inactive) | 15.7 µM (inactive) | 13.9 µM (inactive) | 20.2 µM (inactive) | 21.5 µM (inactive) | 14.9 µM (inactive) | 15.8 µM (inactive) | 17.7 µM (inactive) | 28.6 µM (inactive) | 12.6 µM (inactive) | 11.5 µM (inactive) | 12.8 µM (inactive) | 
